Columns and labels:
[1] = molecular target: T1, immobilized penicillin G acylase from E. coli (Escherichia coli, UniProt P06875); assay: Enzymatic amoxicillin synthesis with immobilized Pen G acylase and various enzyme modulators (Example 8); format: biochemical; conditions: standard synthesis conditions; enzyme 13 U/ml
Text: (§1) The ratio X is defined as the number of moles of D-HPGA consumed per mole of Amox produced. For practical use this can be transformed to X=1+moles D-HPG/moles Amox, wherein "moles D-HPG" is the molar amount of D-HPG produced by hydrolysis of the acylating agent and the desired product and "moles Amox" is the molar amount of Amox present in the reaction mixture. Thus, if X is 1 this means that only the desired synthesis takes place, no hydrolysis. If X is 2, this means that D-HPG and Amox are formed in equal amounts (on a molar basis). If X is 3, this means that twice as much D-HPG as Amox is present in the reaction mixture (on a molar basis). The ratio X can be calculated at any time during reaction, but in the following examples X is calculated at the reaction stop time, which is defined as the time at which 90 % of the theoretical yield of Amox is present in the reaction mixture (based on the inserted amount of 6-APA). Square brackets are used to designate molar concentrations.
(§2) In Examples 1-8 the following standard conditions for enzymatic amoxicillin synthesis have been used (see patent application No. WO 92/01061 for further details):
(§3) During the reactions, the pH value of the reaction mixtures was kept constant by titration with 2M sulphuric acid.
(§4) Representative samples of the reaction mixtures including solid constituents were taken at regular intervals during the reactions and analyzed by HPLC.
The compounds listed below improve synthesis performance (standard synthesis conditions, immobilized penicillin G acylase from E. coli; enzyme dosing 13 U/ml) in the sense that when they are present in the reaction mixture in a concentration within the interval specified, synthesis of the desired β-lactam antibiotic is favoured as compared to hydrolysis of the acylating agent: […]

[2] = molecular target: T1, immobilized penicillin G acylase from E. coli; assay: Enzymatic amoxicillin synthesis with immobilized Pen G acylase, L-(+)-mandelic acid varied (Example 6); format: biochemical; conditions: enzyme 12.0 U/ml
Text: V0 (Amox) is the initial velocity of Amox formation, and V0 (D-HPG) is the initial velocity of D-HPG formation, specified as μmoles/min/g enzyme, μmoles/min/ml reaction mixture, or nmoles/min/U (enzyme activity).
as §1, §2, §3, §4
A standard synthesis (immobilized penicillin G acylase from E. coli; enzyme dosing 12.0 U/ml) was carried out with no L-(+)-mandelic acid added.
Same conditions as in Experiment A were employed, except that L-(+)-mandelic acid was added to the reaction mixture at the beginning of the experiment in amounts as specified in Table 6. A side product obtained was α-hydroxybenzylpenicillin.

[3] = Exp B, [L-(+)-Mandelic acid] 0.64 mM
[4] = Exp C, [L-(+)-Mandelic acid] 3.3 mM
[5] = Exp D, [L-(+)-Mandelic acid] 6.7 mM
[6] = Exp E, [L-(+)-Mandelic acid] 13.3 mM
[7] = Exp F, [L-(+)-Mandelic acid] 14.2 mM
[8] = Exp G, [L-(+)-Mandelic acid] 36.1 mM

T1 sequence (P06875 27-235): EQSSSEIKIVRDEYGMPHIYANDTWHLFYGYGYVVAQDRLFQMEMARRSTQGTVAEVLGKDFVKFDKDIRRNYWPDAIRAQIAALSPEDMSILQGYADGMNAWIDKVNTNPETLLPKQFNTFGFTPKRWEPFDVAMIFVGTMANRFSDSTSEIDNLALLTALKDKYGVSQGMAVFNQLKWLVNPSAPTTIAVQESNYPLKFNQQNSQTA
T1 sequence (P06875 290-846): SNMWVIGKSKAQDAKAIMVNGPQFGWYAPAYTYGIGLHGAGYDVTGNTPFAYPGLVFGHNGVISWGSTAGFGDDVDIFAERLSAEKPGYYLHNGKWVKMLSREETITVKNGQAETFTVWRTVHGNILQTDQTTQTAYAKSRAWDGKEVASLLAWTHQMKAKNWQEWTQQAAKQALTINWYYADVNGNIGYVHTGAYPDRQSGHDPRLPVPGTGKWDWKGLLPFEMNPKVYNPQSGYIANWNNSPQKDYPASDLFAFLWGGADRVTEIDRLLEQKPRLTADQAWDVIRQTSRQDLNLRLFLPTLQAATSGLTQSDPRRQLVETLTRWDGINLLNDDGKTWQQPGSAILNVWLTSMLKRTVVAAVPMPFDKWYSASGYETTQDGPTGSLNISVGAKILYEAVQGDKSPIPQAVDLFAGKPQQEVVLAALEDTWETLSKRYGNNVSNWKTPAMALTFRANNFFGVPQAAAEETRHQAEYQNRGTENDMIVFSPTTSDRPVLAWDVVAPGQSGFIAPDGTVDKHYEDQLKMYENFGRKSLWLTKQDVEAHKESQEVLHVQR

Structure (SMILES): O=[N+]([O-])c1ccc(O)c(CBr)c1 [2-Hydroxy-5-nitrobenzyl bromide]
- Concentration interval where improvement of ratio X is found [1]: 10 to 500 µM

Structure (SMILES): O=C(O)CSc1ccccc1 [(Phenylthio)acetic acid]
- Concentration interval where improvement of ratio X is found [1]: 2 to 1000 µM

Structure (SMILES): O=C(O)[C@@H](O)c1ccccc1 [L-(+)-Mandelic acid, L-(+)-mandelic acid]
- Initial velocity V0 (Amox) [2, 3]: 156 nmoles/min/U
- Initial velocity V0 (D-HPG) [2, 3]: 207 nmoles/min/U
- Reaction stop time [2, 3]: 2.4 h
- X at reaction stop time [2, 3]: 2.9
- Initial velocity V0 (Amox) [2, 4]: 137 nmoles/min/U
- Initial velocity V0 (D-HPG) [2, 4]: 174 nmoles/min/U
- Reaction stop time [2, 4]: 2.8 h
- X at reaction stop time [2, 4]: 2.8
- Initial velocity V0 (Amox) [2, 5]: 119 nmoles/min/U
- Initial velocity V0 (D-HPG) [2, 5]: 146 nmoles/min/U
- Reaction stop time [2, 5]: 3.0 h
- X at reaction stop time [2, 5]: 2.65
- Initial velocity V0 (Amox) [2, 6]: 89 nmoles/min/U
- Initial velocity V0 (D-HPG) [2, 6]: 110 nmoles/min/U
- Reaction stop time [2, 6]: 4.7 h
- X at reaction stop time [2, 6]: 2.65
- Initial velocity V0 (Amox) [2, 7]: 80 nmoles/min/U
- Initial velocity V0 (D-HPG) [2, 7]: 106 nmoles/min/U
- Reaction stop time [2, 7]: 4.2 h
- X at reaction stop time [2, 7]: 2.8
- Initial velocity V0 (Amox) [2, 8]: 49 nmoles/min/U
- Initial velocity V0 (D-HPG) [2, 8]: 68 nmoles/min/U
- Reaction stop time [2, 8]: 5.5 h
- X at reaction stop time [2, 8]: 2.8
- optimal concentration with respect to minimization of the ratio X ([2]; under the conditions chosen): 3.3 to 14.2 mM

Structure (SMILES): CC1(C)[C@H](C(=O)O)N2C(=O)[C@@H](NC(=O)Cc3ccccc3)[C@H]2[S+]1[O-] (stereo partly drawn) [Penicillin G sulfoxide]
- Concentration interval where improvement of ratio X is found [1]: 2 to 500 µM

Structure (SMILES): CC1(C)S[C@@H]2[C@H](NC(=O)Cc3ccccc3)C(=O)N2[C@H]1C(=O)O [Penicillin G]
- Concentration interval where improvement of ratio X is found [1]: 2 to 1000 µM

Structure (SMILES): CC1(C)S[C@@H]2[C@H](NC(=O)COc3ccccc3)C(=O)N2[C@H]1C(=O)O [Penicillin V]
- Concentration interval where improvement of ratio X is found [1]: 2-1000 μm

— patent US5753458A, “Acylation method for penicillins and cephalosporins” (Gist-Brocades B.V., priority 1994, dated 1998)
